Measurements reported in ChEMBL document CHEMBL3885881, “DrugMatrix”.

Organism: Rattus norvegicus
Test: DrugMatrix - Regimen: Daily Repeat
Format: toxicity, organism-based, Sprague-Dawley
Set-up: regimen Daily Repeat, gender Male, age 6-8 weeks
Settings: in vivo, po, 1300 mg/kg, route oral GAVAGE, dose level High, vehicle .5 % CMC; for ABSOLUTE BASOPHIL / ABSOLUTE EOSINOPHIL / ABSOLUTE LYMPHOCYTE / ABSOLUTE MONOCYTE / ABSOLUTE SEGMENTED NEUTROPHIL / BASOPHIL / EOSINOPHIL / ERYTHROCYTE COUNT / HEMATOCRIT / HEMOGLOBIN / LEUKOCYTE COUNT / LYMPHOCYTE / MEAN CORPUSCULAR HEMOGLOBIN / MEAN CORPUSCULAR HEMOGLOBIN CONCENTRATION / MEAN CORPUSCULAR VOLUME / MONOCYTE / NEUTROPHIL / NUCLEATED RED BLOOD CELLS / PLATELET COUNT: tissue Blood; for ALANINE AMINOTRANSFERASE / ALBUMIN / ALKALINE PHOSPHATASE / ASPARTATE AMINOTRANSFERASE / BLOOD UREA NITROGEN / CARBON DIOXIDE / CHLORIDE / CHOLESTEROL / CREATINE PHOSPHOKINASE / CREATININE / GLUCOSE / LACTATE DEHYDROGENASE / LIPASE / PHOSPHORUS / POTASSIUM / SODIUM / TOTAL BILIRUBIN / TOTAL PROTEIN / URIC ACID: tissue Plasma

NC(=O)c1ccccc1O [SALICYLAMIDE]
ABSOLUTE BASOPHIL (72 h, time 3 day): 0 CELLS/uL
ABSOLUTE EOSINOPHIL (72 h, time 3 day): 0 CELLS/uL
ABSOLUTE LYMPHOCYTE (72 h, time 3 day): 15293.5 CELLS/uL
ABSOLUTE MONOCYTE (72 h, time 3 day): 351 CELLS/uL
ABSOLUTE SEGMENTED NEUTROPHIL (72 h, time 3 day): 1905.5 CELLS/uL
BASOPHIL (72 h, time 3 day): 0%
EOSINOPHIL (72 h, time 3 day): 0%
ERYTHROCYTE COUNT (72 h, time 3 day): 6 x10E6/uL
HEMATOCRIT (72 h, time 3 day): 36.9%
HEMOGLOBIN (72 h, time 3 day): 14.4 G/DL
LEUKOCYTE COUNT (72 h, time 3 day): 17.55 x10E3/uL
LYMPHOCYTE (72 h, time 3 day): 87%
MEAN CORPUSCULAR HEMOGLOBIN (72 h, time 3 day): 24 pg
MEAN CORPUSCULAR HEMOGLOBIN CONCENTRATION (72 h, time 3 day): 39 G/DL
MEAN CORPUSCULAR VOLUME (72 h, time 3 day): 61.55 fL
MONOCYTE (72 h, time 3 day): 2%
NEUTROPHIL (72 h, time 3 day): 11%
NUCLEATED RED BLOOD CELLS (72 h, time 3 day): 0 /100WBC
PLATELET COUNT (72 h, time 3 day): 1429 x10E3/uL
ALANINE AMINOTRANSFERASE (72 h, time 3 day): 90 u/L
ALBUMIN (72 h, time 3 day): 4.2 G/DL
ALKALINE PHOSPHATASE (72 h, time 3 day): 469 u/L
ASPARTATE AMINOTRANSFERASE (72 h, time 3 day): 83 u/L
BLOOD UREA NITROGEN (72 h, time 3 day): 14 mg/dL
CARBON DIOXIDE (72 h, time 3 day): 30.5 mmol/L
CHLORIDE (72 h, time 3 day): 101 MEQ/L
CHOLESTEROL (72 h, time 3 day): 71.5 mg/dL
CREATINE PHOSPHOKINASE (72 h, time 3 day): 167.5 u/L
CREATININE (72 h, time 3 day): 0.12 mg/dL
GLUCOSE (72 h, time 3 day): 146.5 mg/dL
LACTATE DEHYDROGENASE (72 h, time 3 day): 166 u/L
LIPASE (72 h, time 3 day): 9.5 u/L
PHOSPHORUS (72 h, time 3 day): 12.5 mg/dL
POTASSIUM (72 h, time 3 day): 6.86 MEQ/L
SODIUM (72 h, time 3 day): 145.55 MEQ/L
TOTAL BILIRUBIN (72 h, time 3 day): 0.2 mg/dL
TOTAL PROTEIN (72 h, time 3 day): 5.75 G/DL
URIC ACID (72 h, time 3 day): 1.65 mg/dL
ABSOLUTE BASOPHIL (120 h, time 5 day): 0 CELLS/uL
ABSOLUTE EOSINOPHIL (120 h, time 5 day): 33.67 CELLS/uL
ABSOLUTE LYMPHOCYTE (120 h, time 5 day): 13088.67 CELLS/uL
ABSOLUTE MONOCYTE (120 h, time 5 day): 0 CELLS/uL
ABSOLUTE SEGMENTED NEUTROPHIL (120 h, time 5 day): 1544.33 CELLS/uL
BASOPHIL (120 h, time 5 day): 0%
EOSINOPHIL (120 h, time 5 day): 0.33%
ERYTHROCYTE COUNT (120 h, time 5 day): 5.56 x10E6/uL
HEMATOCRIT (120 h, time 5 day): 35.47%
HEMOGLOBIN (120 h, time 5 day): 14.03 G/DL
LEUKOCYTE COUNT (120 h, time 5 day): 14.67 x10E3/uL
LYMPHOCYTE (120 h, time 5 day): 88.67%
MEAN CORPUSCULAR HEMOGLOBIN (120 h, time 5 day): 25.27 pg
MEAN CORPUSCULAR HEMOGLOBIN CONCENTRATION (120 h, time 5 day): 39.6 G/DL
MEAN CORPUSCULAR VOLUME (120 h, time 5 day): 63.83 fL
MONOCYTE (120 h, time 5 day): 0%
NEUTROPHIL (120 h, time 5 day): 11%
NUCLEATED RED BLOOD CELLS (120 h, time 5 day): 0.33 /100WBC
PLATELET COUNT (120 h, time 5 day): 1393 x10E3/uL
ALANINE AMINOTRANSFERASE (120 h, time 5 day): 71 u/L
ALBUMIN (120 h, time 5 day): 4.07 G/DL
ALKALINE PHOSPHATASE (120 h, time 5 day): 356.67 u/L
ASPARTATE AMINOTRANSFERASE (120 h, time 5 day): 83.33 u/L
BLOOD UREA NITROGEN (120 h, time 5 day): 16 mg/dL
CARBON DIOXIDE (120 h, time 5 day): 23 mmol/L
CHLORIDE (120 h, time 5 day): 106.33 MEQ/L
CHOLESTEROL (120 h, time 5 day): 70.33 mg/dL
CREATINE PHOSPHOKINASE (120 h, time 5 day): 456 u/L
CREATININE (120 h, time 5 day): 0.21 mg/dL
GLUCOSE (120 h, time 5 day): 189.33 mg/dL
LACTATE DEHYDROGENASE (120 h, time 5 day): 144.67 u/L
LIPASE (120 h, time 5 day): 10 u/L
PHOSPHORUS (120 h, time 5 day): 12.87 mg/dL
POTASSIUM (120 h, time 5 day): 5.46 MEQ/L
SODIUM (120 h, time 5 day): 149.13 MEQ/L
TOTAL BILIRUBIN (120 h, time 5 day): 0.27 mg/dL
TOTAL PROTEIN (120 h, time 5 day): 5.83 G/DL
URIC ACID (120 h, time 5 day): 1.7 mg/dL
